Structures can show the parent of a compound that is named as a salt.
Legend:
Type in all cases: in vivo
CEW (Helicoverpa zea) = test: Bioassay on corn earworm (CEW), 128-well diet tray assay; conditions: 50 μg/cm2 on artificial diet, second instar larvae, five to seven days, 25° C.; for mortality at 50 µg/cm2: Helicoverpa zea, 168 h
Experimental: (§1) Certain molecules disclosed in this document were tested against BAW and CEW using procedures described in the following examples. In the reporting of the results, the “BAW & CEW Rating Table” was used (See Table Section).
Bioassays on CEW were conducted using a 128-well diet tray assay. one to five second instar CEW larvae were placed in each well (3 mL) of the diet tray that had been previously filled with 1 mL of artificial diet to which 50 μg/cm^2 of the test compound (dissolved in 50 μL of 90:10 acetone-water mixture) had been applied (to each of eight wells) and then allowed to dry. Trays were covered with a clear self-adhesive cover, and held at 25° C., 14:10 light-dark for five to seven days. Percent mortality was recorded for the larvae in each well; activity in the eight wells was then averaged. The results are indicated in the table entitled “Table 1” (See Table Section).

BAW (Spodoptera exigua) = test: Bioassay on beet armyworm (BAW), 128-well diet tray assay; conditions: 50 μg/cm2 on artificial diet, second instar larvae, five to seven days, 25° C.; for mortality at 50 µg/cm2: Spodoptera exigua, 168 h
Experimental: as §1
Bioassays on BAW were conducted using a 128-well diet tray assay. one to five second instar BAW larvae were placed in each well (3 mL) of the diet tray that had been previously filled with 1 mL of artificial diet to which 50 μg/cm^2 of the test compound (dissolved in 50 μL of 90:10 acetone-water mixture) had been applied (to each of eight wells) and then allowed to dry. Trays were covered with a clear self-adhesive cover, and held at 25° C., 14:10 light-dark for five to seven days. Percent mortality was recorded for the larvae in each well; activity in the eight wells was then averaged. The results are indicated in the table entitled “Table 1” (See Table Section).

GPA (Myzus persicae) = test: Bioassay on green peach aphid (GPA), foliar spray on cabbage seedlings; conditions: 200 ppm spray on cabbage seedlings, three days, Abbott corrected % control; for mortality at 200 ppm: Myzus persicae, foliar, 72 h
Experimental: Certain molecules disclosed in this document were tested against GPA using procedures described in the following example. In the reporting of the results, the “GPA Rating Table” was used (See Table Section).
Cabbage seedlings grown in 3-inch pots, with 2-3 small (3-5 cm) true leaves, were used as test substrate. The seedlings were infested with 20-50 GPA (wingless adult and nymph stages) one day prior to chemical application. Four pots with individual seedlings were used for each treatment. Test compounds (2 mg) were dissolved in 2 mL of acetone/methanol (1:1) solvent, forming stock solutions of 1000 ppm test compound. The stock solutions were diluted 5× with 0.025% Tween 20 in H2O to obtain the solution at 200 ppm test compound. A hand-held aspirator-type sprayer was used for spraying a solution to both sides of […] leaves until runoff. Reference plants (solvent check) were sprayed with the diluent only containing 20% by volume of acetone/methanol (1:1) solvent. Treated plants were held in a holding room for three days at approximately 25° C. and ambient relative humidity (RH) prior to grading. Evaluation was conducted by counting the number of live aphids per plant under a microscope. Percent Control was measured by using Abbott's correction formula (W. S. Abbott, “A Method of Computing the Effectiveness of an Insecticide” J. Econ. Entomol. 18 (1925), pp. 265-26′7) as follows. Corrected % Control=100*(X−Y)/X • where • X=No. of live aphids on solvent check plants and • Y=No. of live aphids on treated plants

Row | SMILES | % Mortality CEW 50 μg/cm2 (CEW (Helicoverpa zea)) | % Mortality BAW 50 μg/cm2 (BAW (Spodoptera exigua)) | % Mortality GPA 200 ppm (GPA (Myzus persicae)) | mortality at 50 µg/cm2 (CEW (Helicoverpa zea)) [%] | mortality at 50 µg/cm2 (BAW (Spodoptera exigua)) [%] | mortality at 200 ppm (GPA (Myzus persicae)) [%]
1 | CCO[C@@H]1[C@@H](OC)[C@H](C)O[C@@H](ONCc2ccc(-c3ncn(-c4ccc(OC(F)(F)C(F)(F)F)cc4)n3)cc2)[C@@H]1OC [Compound 1, O-((2S,3R,4R,5S,6S)-4-ethoxy-3,5-dimethoxy-6-methyl-tetrahydropyran-2-yl)-N-{4-[1-(4-pentafluoroethyloxy-phenyl)-1H-[1,2,4]triazol-3-yl]-benzyl}-hydroxylamine] | A (50-100) | A (50-100) | B (More than 0-Less than 80) |  |  | 
2 | CO[C@@H]1[C@@H](O)[C@H](C)O[C@@H](ONCc2ccc(-c3ncn(-c4ccc(OC(F)(F)C(F)(F)F)cc4)n3)cc2)[C@@H]1OC [Compound 2, (2S,3S,4R,5R,6S)-4,5-Dimethoxy-2-methyl-6-(N-{4-[1-(4-pentafluoroethyloxy-phenyl)-1H-[1,2,4]triazo1-3-yl]-benzyl}aminooxy)-tetrahydroyran-3-ol] |  |  |  | 50 to 100 | 50 to 100 | 0 to 80
3 | CO[C@@H]1[C@@H](OC)[C@H](C)O[C@@H](ONCc2ccc(-c3ncn(-c4ccc(OC(F)(F)F)cc4)n3)cc2)[C@@H]1OC [Compound 3, N-{4-[1-(4-trifluoromethoxyphenyl)-1H-[1,2,4]triazol-3-yl]-benzyl}-O-((2S,3R,4R,5S,6S)-3,4,5-trimethoxy-6-methyl-tetrahydro-pyran-2-yl)-hydroxylamine] | A (50-100) | A (50-100) |  |  |  | 0 to 80
4 | CO[C@@H]1[C@@H](OC)[C@H](C)O[C@@H](ONCc2ccc(-c3ncn(-c4ccc(OC(F)(F)F)cc4)n3)cc2)[C@@H]1OC.Cl [Compound 4, N-{4-[1-(4-trifluoromethoxyphenyl)-1H-[1,2,4]triazol-3-yl]-benzyl}-O-((2S,3R,4R,5S,6S)-3,4,5-trimethoxy-6-methyl-tetrahydropyran-2-yl)-hydroxylamine hydrochloride] | B (More than 0-Less than 50) |  |  |  | 50 to 100 | 
5 | CCO[C@@H]1[C@@H](OC)[C@H](C)O[C@@H](ONCc2ccc(-c3ncn(-c4ccc(OC(F)(F)C(F)(F)F)cc4)n3)cc2)[C@@H]1OC [Compound 5, O-((2S,3R,4R,5S,6S)-4-Ethoxy-3,5-dimethoxy-6-methyl-tetrahydropyran-2-yl)-N-{4-[1-(4-pentafluoroethyloxy-phenyl)-1H-[1,2,4]triazol-3-yl]-benzyl}-hydroxylamine hydrochloride] |  |  |  | 50 to 100 | 50 to 100 | 0
6 | CO[C@@H]1[C@@H](OC)[C@H](C)O[C@@H](ON(Cc2ccc(-c3ncn(-c4ccc(OC(F)(F)F)cc4)n3)cc2)C(C)=O)[C@@H]1OC [Compound 6, N-{4-[1-(4-trifluoromethoxyphenyl)-1H-[1,2,4]triazol-3-yl]-benzyl}-N-((2S,3R,4R,5S,6S)-3,4,5-trimethoxy-6-methyl-tetrahydropyran-2-yloxy)-acetamide] |  |  |  | 50 to 100 | 50 to 100 | 0 to 80
7 | CO[C@@H]1[C@@H](OC)[C@H](C)O[C@@H](ON(C)Cc2ccc(-c3ncn(-c4ccc(OC(F)(F)F)cc4)n3)cc2)[C@@H]1OC [Compound 7, N-Methyl-N-{4-[1-(4-trifluoromethoxyphenyl)-1H-[1,2,4]triazol-3-yl]-benzyl}-O-((2S,3R,4R,5S6S)-3,4,5-trimethoxy-6-methyl-tetrahydro-pyran-2-yl)-hydroxylamine] |  |  |  | 50 to 100 | 50 to 100 | 0
8 | CO[C@@H]1[C@@H](OC)[C@H](C)O[C@@H](ON(Cc2ccc(-c3ncn(-c4ccc(OC(F)(F)F)cc4)n3)cc2)C(=O)CCC(=O)O)[C@@H]1OC [Compound 8, N-{4-[1-(4-trifluoromethoxyphenyl)-1H-[1,2,4]triazol-3-yl]-benzyl}-N-((2S,3R,4R,5S,6S)-3,4,5-trimethoxy-6-methyl-tetrahydropyran-2-yloxy)-succinamic acid] |  |  |  | 0 | 0 | 0
9 | COC(=O)CC(=O)N(Cc1ccc(-c2ncn(-c3ccc(OC(F)(F)F)cc3)n2)cc1)O[C@@H]1O[C@@H](C)[C@H](OC)[C@@H](OC)[C@H]1OC [Compound 9, N-{4-[1-(4-trifluoromethoxyphenyl)-1H-[1,2,4]triazol-3-yl]-benzyl}-N-((2S,3R,4R,5S,6S)-3,4,5-trimethoxy-6-methyl-tetrahydropyran-2-yloxy)-malonamic acid methyl ester] |  |  |  | 50 to 100 | 50 to 100 | 0 to 80

Reference: patent US8551914B2, “Pesticidal compositions” (Dow AgroSciences, LLC., priority 2011, dated 2013)
